Tests used:
NEM cells [1] = assay: Western blotting of growth promoting and proapoptotic gene products, NEM cells; format: cell-based, human
ESECT-40 cells = assay: Western blotting of growth promoting and proapoptotic gene products, ESECT-40; format: cell-based, human
Text: (§1) Reagents and Antibodies: Annexin V Dead Cell Apoptosis Kit (V13241) was purchased from Invitrogen. The primary antibodies used were EGFR (4267, 1:1000), Survivin (2808, 1:1000), c-Caspase-3 (9661, 1; 1000), c-PARP (9541, 1:1000) from Cell Signaling Technology (Danvers, MA) and c-Myc (sc-40, 1:500), Bcl-2 (sc-509, 1:500) and Bax (sc-20067, 1:500) from Santacruz Biotechnology (Santacruz, CA), NR4A1 (ab109180, 1:3000) and α-SMA (ab32575, 1:3000) from Abcam (Cambridge, MA), β-Actin (A1978, 1:10000) from Sigma Aldrich Corporation (Milwaukee, WI). COL1A1 (GTX112731, 1:2000), CTGF (GTX124232, 1:2000) and FN (GTX112794, 1:2000) from GeneTex, Inc. (Irvine, CA). Secondary antibodies for rabbit (7074), mouse (7076) and Anti-rabbit Alexa Fluor (4412) purchased from Cell Signaling Technology (Danvers, MA). […]
(§2) Western Blotting: ESECT-7 and ESECT-40 cells (2×105) were seeded and allowed to attach for 24 hr, and cells were then treated for 24 hr with either DMSO or different concentrations of DIM-C-pPhOH and DIM-C-pPhOH-3-Cl-5-OCH3. Cells were then lysed and whole-cell lysates were resolved in 10% SDS-PAGE gels and proteins were transferred using PVDF membrane by wet blotting followed by primary and secondary antibody incubation and detected using ECL reagent as described.

NR4A1 = molecular target: T1, NR4A1 (Mus musculus, UniProt P12813); settings: C2C12 muscle cells; cited from earlier work
T1 construct: endogenous in cells; host or cells: C2C12 muscle cells
T1 sequence (P12813 whole entry): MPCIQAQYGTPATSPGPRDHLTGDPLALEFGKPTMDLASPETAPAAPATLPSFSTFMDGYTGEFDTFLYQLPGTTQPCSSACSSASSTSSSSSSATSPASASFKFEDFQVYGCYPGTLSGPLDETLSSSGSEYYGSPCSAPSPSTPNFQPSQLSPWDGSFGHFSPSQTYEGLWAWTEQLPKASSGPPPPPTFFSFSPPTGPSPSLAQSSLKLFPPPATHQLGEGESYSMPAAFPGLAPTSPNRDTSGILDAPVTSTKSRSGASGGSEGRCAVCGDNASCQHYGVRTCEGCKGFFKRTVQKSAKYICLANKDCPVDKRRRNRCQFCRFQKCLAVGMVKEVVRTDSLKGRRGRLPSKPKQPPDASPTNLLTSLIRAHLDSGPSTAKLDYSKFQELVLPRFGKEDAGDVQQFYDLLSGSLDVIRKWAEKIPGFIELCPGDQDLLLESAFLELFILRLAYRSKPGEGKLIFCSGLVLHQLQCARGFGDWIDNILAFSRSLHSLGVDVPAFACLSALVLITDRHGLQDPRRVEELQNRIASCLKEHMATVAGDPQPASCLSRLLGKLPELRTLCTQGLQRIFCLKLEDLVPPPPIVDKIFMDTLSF

human ectopic lesions = assay: Endometriosis mouse model by hetero-transplantation with human endometrial cells in SCID mice; format: in vivo; settings: SCID mice with HECs carrying luciferase; 25 mg/kg once a day, 30 days; p=0.022; FIGS. 9B, 9C
Text: Endometriosis Mouse Model by Hetero-transplantation with immortalized human endometrial cells: The luciferase stable immortalized human endometrial epithelial cells […] and luciferase stable immortalized human endometrial stromal cells (LIHESCs) were generated from IHESCs isolated from endometria obtained from hysterectomies for benign conditions and IHEECs generated from ovarian endometrioma by transducing lentivirus-expressing luciferase and then the expression of luciferase was validated with the luciferase activity assay. Matrigel contained the mixture of LIHESCs (1×10^6 cells) and LIHEECs (1×10^6 cells) were injected into the peritoneal cavity of female severe combined immune deficiency (SCID) mice (6 weeks old) to induce endometriosis. Henceforth, we refer to the mixture of LIHEECs and LIHESCs as human endometrial cells (HEC). […] To noninvasively determine the progression of human ectopic lesions, we injected mice with 150 mg/kg of D-Luciferin intra-peritoneally 5 min before imaging, and then determined luciferase activities of human ectopic lesions in mice using In Vivo Image System.

NEM cells [2] = assay: Annexin V staining, NEM cells; format: cell-based, human; settings: 25 μM DIM-C-pPhOH, 10 μM DIM-C-pPhOH-3-Cl-5-OCH3, vs DMSO control, FIG. 4C
ESECT-7 cells [3] = assay: Western blotting of growth promoting and proapoptotic gene products, ESECT-7; format: cell-based, human
Text: as §1, §2

ESECT-7 cells [4] = assay: α-SMA immunofluorescence, ESECT-7; format: cell-based, human; settings: vs control, FIG. 5A
Description: Immunofluorescence: ESECT-7 and ESECT-40 cells were seeded in Nunc chambered cover-glass followed by various drug treatments. The cells were fixed with 4% paraformaldehyde in PBS for 20 minutes at 37° C. Cells were then blocked and incubated overnight with primary α-SMA antibody in the buffer (5% bovine serum albumin in PBS) at 4° C., followed by incubation with Alexa Fluor conjugated secondary antibody at a dilution of 1:250 for 2 hours at room temperature. Finally, cells were observed using a Zeiss confocal fluorescence microscope.

Description for mouse ectopic lesions: Endometriosis Mouse Model with Auto-transplantation: One uterine horn was isolated from a female mouse (6 weeks old, C57BL/6J) under anesthesia, and then the uterine horn was longitudinally cut. Using a 2-mm dermal biopsy punch, one endometrial fragment was obtained from the isolated uterus and subsequently sutured to the mesenteric membrane attached to the intestine of the same mouse. The abdominal incision then was closed by suture. Before harvesting ectopic lesions, the mouse estrous cycle was determined using vaginal cytology. At the estrus stage in the 3rd week after endometriosis induction, ectopic lesions were isolated from mice with endometriosis. As the endometriosis control, uteri were isolated from C57BL/6J female mice without endometriosis at the estrus stage at 10 weeks of age.
Endometriosis Treatment with C-DIM: Endometriosis was induced to mice with auto- and hetero-transplantation method as described above. […] In the case of the auto-transplantation model, we isolated mouse ectopic lesions treated with C-DIM versus the vehicle from mice with endometriosis at the estrus stage in the 3rd week after drug treatment and then determined their volume. In the case of the hetero-transplantation model, we determined the luciferase activity of the human ectopic lesions treated with C-DIM versus vehicle in SCID mice with endometriosis during the drug treatment.

Compound: COc1cc(C(c2c[nH]c3ccccc23)c2c[nH]c3ccccc23)cc(Cl)c1O [DIM-C-pPhOH-3-Cl-5-OCH3]
- reduction of the volume of ectopic lesions compared to the vehicle (mouse ectopic lesions; 25 mg/kg every day, intraperitoneal, three weeks, p=0.015, FIG. 8D): 2.4 fold
- bodyweight of mice as compared to the vehicle (mouse ectopic lesions; mouse, in vivo): did not change
- levels of the cleaved form of PARP and Bax (NEM cells [1]; 25 μM DIM-C-pPhOH, 10 μM DIM-C-pPhOH-3-Cl-5-OCH3, vs DMSO control, FIG. 4D): did not enhance
- cMyc and EGFR expression (NEM cells [1]; 15-25 μM DIM-C-pPhOH, 5-10 μM DIM-C-pPhOH-3-Cl-5-OCH3, vs DMSO control, FIG. 4B): did not decrease
- expression of EGFR and cMyc (ESECT-40 cells; 5-10 μM, 24 hr, FIG. 2D): downregulated
- markers of apoptosis (downregulation of survivin and Bcl-2, induced Bax, cleaved PARP and caspase-3) (ESECT-40 cells; Five μM, 24 hours, FIG. 3C): significantly induced several markers of apoptosis
- NR4A1 agonist activity, induction of genes involved in glucose uptake (NR4A1): worked as NR4A1 agonists
- reduction of luciferase activity in human ectopic lesions compared with the vehicle (human ectopic lesions): 13.4 fold
- Annexin V staining (NEM cells [2]): did not enhance
- expression of EGFR and cMyc (ESECT-7 cells [3]; 5-10 μM, 24 hr, FIG. 2D): downregulated
- markers of apoptosis (downregulation of survivin and Bcl-2, induced Bax, cleaved PARP and caspase-3) (ESECT-7 cells [3]; Five μM, 24 hours, FIG. 3C): significantly induced several markers of apoptosis
- expression of SMA levels (ESECT-7 cells [4]): decreased expression of SMA levels
